According to patent US20230357233A1, “HETEROARYL COMPOUNDS, PREPARATION METHODS AND USES THEREOF” (INVENTISBIO CO., LTD., priority 2020, published 2023):

Molecular target: Ba/F3_KRAS^G12D cells (Homo sapiens, UniProt P01116, G12D, cells depend on it)
Test: Ba/F3 KRAS^G12D cell proliferation assay (cell-titer Glo)
Assay type: cell-based
Conditions: cell growth inhibition, treated with the compounds for 3 days, read-out: BaF3_KRAS^G12D IC50
Procedure: Cells were seeded at a density of 5×10^3 per well into 96-well plate and incubated overnight. Serial diluted compounds were added to each well. Cells were treated with the compounds for 3 days, after which cell-titer Glo reagent (Promega #G7572) was used to assess cell proliferation. The luminescence signal was then collected on Tecan Spark plate reader. […] Cell growth inhibition of IC50 is calculated with the equation of Y=Bottom+(Top−Bottom)/(1+10^((LogIC50−X)*HillSlope))

Sequence of Ba/F3_KRAS^G12D cells (P01116 whole entry G12D): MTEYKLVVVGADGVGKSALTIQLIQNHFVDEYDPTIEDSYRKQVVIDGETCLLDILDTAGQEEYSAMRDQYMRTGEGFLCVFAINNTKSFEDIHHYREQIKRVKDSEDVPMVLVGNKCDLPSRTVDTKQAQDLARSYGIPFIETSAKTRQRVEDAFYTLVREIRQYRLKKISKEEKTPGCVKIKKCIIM

C#Cc1c(F)ccc2cc(O)cc(-c3c(F)c4nc(OC[C@@]56CCCN5C[C@H](F)C6)nc(N5CC6CCC(C5)N6)c4c4ncnn34)c12 (single isomer, unassigned) [Compound 155]
GI50: < 0.5 µM

C#Cc1c(F)ccc2cc(O)cc(-c3c(F)c4nc(OC[C@@]56CCCN5C[C@H](F)C6)nc(N5CC6CCC(C5)N6)c4c4ncnn34)c12 (single isomer, unassigned) [Compound 156]
GI50: < 0.5 µM

C#Cc1c(F)ccc2cc(O)cc(-c3ncc4c(N5CC6CCC(C5)N6)nc(OC[C@@]56CCCN5C[C@H](F)C6)nc4c3F)c12 [Compound 129]
GI50: < 0.5 µM

CCc1c(F)ccc2cc(O)cc(-c3ncc4c(N5CC6CCC(C5)N6)nc(OC[C@@]56CCCN5C[C@H](F)C6)nc4c3F)c12 [Compound 140]
GI50: < 0.5 µM

C#Cc1c(F)ccc2c(F)c(O)cc(-c3nc(C)c4c(N5CC6CCC(C5)N6)nc(OC[C@@]56CCCN5C[C@H](F)C6)nc4c3F)c12 [Compound 143]
GI50: < 0.5 µM

Cc1nc(-c2cc(O)cc3ccc(F)c(OC(F)F)c23)c(F)c2nc(OC[C@@]34CCCN3C[C@H](F)C4)nc(N3CC4CCC(C3)N4)c12 [Compound 144]
GI50: < 0.5 µM

CNC(=O)COc1nc(-c2cc(O)cc3ccccc23)c(F)c2nc(OC[C@@]34CCCN3C[C@H](F)C4)nc(N3CC4CCC(C3)N4)c12 [Compound 145]
GI50: 0.5 to 5 µM

CC#Cc1c(F)ccc2cc(O)cc(-c3nc(OC)c4c(N5CC6CCC(C5)N6)nc(OC[C@@]56CCCN5C[C@H](F)C6)nc4c3F)c12 [Compound 146]
GI50: < 0.5 µM

C#Cc1c(F)ccc2cc(O)cc(-c3nc(OC(C)C)c4c(N5CC6CCC(C5)N6)ncnc4c3F)c12 [Compound 150]
GI50: < 0.5 µM

CCc1c(F)ccc2c(F)c(O)cc(-c3nc(C)c4c(N5CC6CCC(C5)N6)nc(OC[C@@]56CCCN5C[C@H](F)C6)nc4c3F)c12 [Compound 151]
GI50: > 5 µM

C#Cc1c(F)ccc2cc(O)cc(-c3nc(OCC(F)(F)F)c4c(N5CC6CCC(C5)N6)ncnc4c3F)c12 [Compound 153]
GI50: 0.5 to 5 µM

C#Cc1c(F)ccc2cccc(-c3nc(O)c4c(N5CC6CCC(C5)N6)nc(OC[C@@]56CCCN5C[C@H](F)C6)nc4c3F)c12 [Compound 154]
GI50: 0.5 to 5 µM

CCc1cccc2cc(N)cc(-c3nc(OC)c4c(N5CC6CCC(C5)N6)nc(OC[C@@]56CCCN5C[C@H](F)C6)nc4c3F)c12 [Compound 157]
GI50: < 0.5 µM

C#Cc1c(F)ccc2cc(N)cc(-c3nc(Cl)c4c(N5CC6CCC(C5)N6)nc(OC[C@@]56CCCN5C[C@H](F)C6)nc4c3F)c12 [Compound 158]
GI50: < 0.5 µM

C#Cc1c(F)ccc2cc(O)cc(-c3nc(OC)c4c(N5CC6CCC(C5)N6)ncnc4c3F)c12 [Compound 161]
GI50: < 0.5 µM

C#Cc1c(F)ccc2cc(O)cc(-c3nc(OC)c4c(N5CC6CCC(C5)N6)nc(OC)nc4c3F)c12 [Compound 162]
GI50: < 0.5 µM

CCc1c(F)ccc2cc(N)cc(-c3nc(OC)c4c(N5CC6CCC(C5)N6)nc(OC[C@@]56CCCN5C[C@H](F)C6)nc4c3F)c12 [Compound 164]
GI50: < 0.5 µM

Oc1cc(-c2nc(C(F)F)c3c(N4CC5CCC(C4)N5)nc(OC[C@@]45CCCN4C[C@H](F)C5)nc3c2F)c2c(Cl)c(F)ccc2c1 [Compound 167]
GI50: < 0.5 µM

C#Cc1c(F)ccc2cccc(-c3nc(OCC)c4c(N5CC6CCC(C5)N6)nc(OC[C@@]56CCCN5C[C@H](F)C6)nc4c3F)c12 [Compound 168]
GI50: < 0.5 µM

C#Cc1c(F)ccc2cc(O)cc(-c3nc(OCC)c4c(N5CC6CCC(C5)O6)nc(OC[C@@]56CCCN5C[C@H](F)C6)nc4c3F)c12 [Compound 169]
GI50: < 0.5 µM

C#Cc1c(F)ccc2cc(O)cc(-c3nc(C(F)(F)F)c4c(N5CC6CCC(C5)N6)nc(OC[C@@]56CCCN5C[C@H](F)C6)nc4c3F)c12 [Compound 170]
GI50: < 0.5 µM

C#Cc1c(F)ccc2cc(O)cc(-c3nc(OCC)c4c(N5CCNC6(CCC6)C5)nc(OC[C@@]56CCCN5C[C@H](F)C6)nc4c3F)c12 [Compound 172]
GI50: < 0.5 µM

Oc1cc(-c2nc(O)c3c(N4CC5CCC(C4)N5)nc(OC[C@@]45CCCN4C[C@H](F)C5)nc3c2F)c2c(Cl)c(F)ccc2c1 [Compound 174]
GI50: 0.5 to 5 µM

C#Cc1c(F)ccc2cc(O)cc(-c3nc(OC)c4c(N5CC6CCC(C5)N6)nc(OC[C@@]56CCCN5[C@H](COC(=O)N(C)C)CC6)nc4c3F)c12 [Compound 175]
GI50: < 0.5 µM

C#Cc1c(F)ccc2cc(O)cc(-c3nc(OC)c4c(N5CC6CCC(C5)N6)nc(OC[C@@]56CCCN5[C@@H](COC(=O)N(C)C)CC6)nc4c3F)c12 [Compound 177]
GI50: < 0.5 µM

C#Cc1c(F)ccc2cc(O)cc(-c3nc(OC)c4c(N5CC6CCC(C5)N6)nc(OC[C@]56CCCN5[C@H](COC(=O)N(C)C)CC6)nc4c3F)c12 [Compound 178]
GI50: < 0.5 µM

C#Cc1c(F)ccc2cc(O)cc(-c3nc(OCC(F)F)c4c(N5CC6CCC(C5)N6)nc(OC[C@@]56CCCN5C[C@H](F)C6)nc4c3F)c12 [Compound 180]
GI50: < 0.5 µM

C#Cc1c(F)ccc2cc(O)cc(-c3nc(C4CC4)c4c(N5CC6CCC(C5)N6)nc(OC[C@@]56CCCN5C[C@H](F)C6)nc4c3F)c12 [Compound 181]
GI50: < 0.5 µM

C#Cc1c(F)ccc2cc(O)cc(-c3nc(OC)c4c(N5CC6CCC(C5)N6)nc(OCC5(CN(C)C)CC5)nc4c3F)c12 [Compound 182]
GI50: < 0.5 µM

C#Cc1c(F)ccc2cc(O)cc(-c3nc(OC)c4c(N5CC6CCC(C5)N6)nc(OCC5(CN6CCCC6)CC5)nc4c3F)c12 [Compound 183]
GI50: < 0.5 µM

C#Cc1c(F)ccc2cc(O)cc(-c3nc(OC)c4c(N5CC6CCC(C5)N6)nc(OCC5(CN6CCC6)CC5)nc4c3F)c12 [Compound 184]
GI50: < 0.5 µM

C#Cc1c(F)ccc2cc(O)cc(-c3nc(OC)c4c(N5CC6CCC(C5)N6)nc(OCC5(CN6CCOCC6)CC5)nc4c3F)c12 [Compound 185]
GI50: < 0.5 µM

C#Cc1c(F)ccc2cc(O)cc(-c3nc(OC(C)C)c4c(N5CC6CCC(C5)N6)nc(NC)nc4c3F)c12 [Compound 186]
GI50: 0.5 to 5 µM

C#Cc1c(F)ccc2cc(O)cc(-c3nc(O)c4c(N5CC6CCC(C5)N6)nc(NC)nc4c3F)c12 [Compound 187]
GI50: 0.5 to 5 µM

C#Cc1c(F)ccc2cc(O)cc(-c3nc(OC(C)C)c4c(N5CC6CCC(C5)N6)nc(N)nc4c3F)c12 [Compound 188]
GI50: 0.5 to 5 µM

C#Cc1c(F)ccc2cc(O)cc(-c3nc(OC(C)C)c4c(N5CC6CCC(C5)N6)nc(N(C)C)nc4c3F)c12 [Compound 189]
GI50: 0.5 to 5 µM

C#Cc1c(F)ccc2cc(O)cc(-c3nc(OC(C)C)c4c(N5CC6CCC(C5)N6)nc(C(F)F)nc4c3F)c12 [Compound 190]
GI50: < 0.5 µM

C#Cc1c(F)ccc2cc(O)cc(-c3nc(OC(C)C)c4c(N5CC6CCC(C5)N6)nc(OC)nc4c3F)c12 [Compound 191]
GI50: < 0.5 µM

C#Cc1c(F)ccc2cc(O)cc(-c3nc(OC(C)C)c4c(N5CC6CCC(C5)N6)nc(OCCOC)nc4c3F)c12 [Compound 192]
GI50: < 0.5 µM

C#Cc1c(F)ccc2cc(O)cc(-c3nc(O)c4c(N5CC6CCC(C5)N6)nc(OCCOC)nc4c3F)c12 [Compound 193]
GI50: < 0.5 µM

C#Cc1c(F)ccc2cc(O)cc(-c3nc(OC(C)C)c4c(N5CC6CCC(C5)N6)nc(OCCN(C)C)nc4c3F)c12 [Compound 194]
GI50: < 0.5 µM

C#Cc1c(F)ccc2cc(O)cc(-c3nc(O)c4c(N5CC6CCC(C5)N6)nc(OC[C@@H]5CCCN5C)nc4c3F)c12 [Compound 196]
GI50: 0.5 to 5 µM

Cc1nc(N)cc(-c2nc(OC(C)C)c3c(N4CC5CCC(C4)N5)nc(OC[C@@]45CCCN4C[C@H](F)C5)nc3c2F)c1C(F)(F)F [Compound 198]
GI50: < 0.5 µM
